Data taken from ChEMBL document CHEMBL1201862, “PubChem BioAssay data set” (2004).
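48-hour exposure; five concentrations; linearly interpolated endpoints. GI50 is the concentration that inhibits growth by half.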 The source made the active and inactive calls. Cut-off read from the data, not from the text of the source: active = GI50 up to about 1.1 µM and inactive = higher.

Experiments:
Assay in all cases: inhibition of tumour cell growth, NCI panel, 48 h
786-0 = tested on: 786-0
UO-31 = tested on: UO-31
RPMI-8226 = tested on: RPMI-8226
OVCAR-4 = tested on: OVCAR-4
HCC 2998 = tested on: HCC 2998
SK-MEL-5 = tested on: SK-MEL-5
SN12C = tested on: SN12C
OVCAR-3 = tested on: OVCAR-3
NCI-H460 = tested on: NCI-H460
M14 = tested on: M14
SK-OV-3 = tested on: SK-OV-3
SR = tested on: SR
RXF 393 = tested on: RXF 393
SF-539 = tested on: SF-539
OVCAR-8 = tested on: OVCAR-8
SW-620 = tested on: SW-620
MDA-MB-435 = tested on: MDA-MB-435
MCF7 = tested on: MCF7
NCI/ADR-RES = tested on: NCI/ADR-RES

Measured: GI50

Cc1ccc(NC(=O)/C(=N/NC(=O)C[N+](C)(C)C)c2nc3ccccc3nc2O)cc1
inactive: 786-0 > 100 µM | UO-31 > 100 µM | RPMI-8226 > 100 µM | OVCAR-4 > 100 µM | HCC 2998 > 100 µM | SK-MEL-5 > 100 µM | SN12C > 100 µM | OVCAR-3 > 100 µM | NCI-H460 > 100 µM | M14 > 100 µM | SK-OV-3 > 100 µM | SR > 100 µM | RXF 393 > 100 µM | SF-539 > 100 µM | OVCAR-8 > 100 µM | SW-620 15.7 µM

CN1C(c2ccccc2)CC(O)CC1c1ccccc1 (stereo not given)
inactive: 786-0 > 100 µM | UO-31 > 100 µM | RPMI-8226 > 100 µM | OVCAR-4 > 100 µM | SK-MEL-5 > 100 µM | SN12C > 100 µM | OVCAR-3 > 100 µM | NCI-H460 > 100 µM | M14 > 100 µM | SK-OV-3 > 100 µM | SR > 100 µM | RXF 393 > 100 µM | SF-539 > 100 µM | OVCAR-8 > 100 µM | SW-620 > 100 µM

N#Cc1cc([N+](=O)[O-])ccc1NC(=O)/C(=N/N)C(C(=O)c1ccc(Cl)c(Cl)c1)C1OC(=O)c2ccccc21 (stereo not given)
inactive: 786-0 59.3 µM | UO-31 49.9 µM | RPMI-8226 46.1 µM | OVCAR-4 30.8 µM | HCC 2998 65.9 µM | SK-MEL-5 63.7 µM | SN12C 90.8 µM | OVCAR-3 90.8 µM | NCI-H460 35.8 µM | SK-OV-3 > 100 µM | SR 54.2 µM | RXF 393 19.5 µM | SF-539 67.5 µM | OVCAR-8 28.1 µM | SW-620 95.7 µM

CC(=O)OC(C)(C)C1CCC(C)(C(O)COc2ccc(CCNC(=O)c3ccccc3)cc2)O1 (stereo not given)
inactive: 786-0 > 100 µM | UO-31 33.7 µM | RPMI-8226 20.7 µM | OVCAR-4 63.2 µM | SK-MEL-5 11.6 µM | SN12C > 100 µM | OVCAR-3 27.6 µM | NCI-H460 61.8 µM | M14 28.6 µM | SK-OV-3 > 100 µM | SR 47.1 µM | RXF 393 6.68 µM | SF-539 60.8 µM | OVCAR-8 47.5 µM | SW-620 > 100 µM

CN(C)c1ccc(/C=N/C23CC4CC(CC(C4)C2)C3)cc1
inactive: 786-0 > 100 µM | UO-31 > 100 µM | RPMI-8226 > 100 µM | OVCAR-4 > 100 µM | HCC 2998 > 100 µM | SK-MEL-5 > 10 µM | SN12C > 100 µM | OVCAR-3 > 100 µM | NCI-H460 > 100 µM | M14 > 100 µM | SK-OV-3 > 100 µM | SR > 100 µM | RXF 393 > 100 µM | SF-539 > 100 µM | OVCAR-8 > 100 µM | SW-620 > 100 µM

Cc1ccc(NC(=O)CC2C(=O)Nc3ccccc3S2(=O)=O)cc1C (stereo not given)
inactive: 786-0 > 100 µM | UO-31 > 100 µM | RPMI-8226 62.8 µM | OVCAR-4 > 100 µM | HCC 2998 > 100 µM | SK-MEL-5 > 100 µM | SN12C > 100 µM | OVCAR-3 > 100 µM | NCI-H460 > 100 µM | M14 > 100 µM | SR > 100 µM | RXF 393 > 100 µM | SF-539 > 100 µM | OVCAR-8 > 100 µM | SW-620 > 100 µM

C=CC1(CC)/C(=N\O)C(CC)(CC)C(=O)N1O (stereo not given)
inactive: 786-0 > 100 µM | UO-31 > 100 µM | RPMI-8226 > 100 µM | OVCAR-4 > 100 µM | HCC 2998 > 100 µM | SK-MEL-5 > 100 µM | SN12C > 100 µM | OVCAR-3 > 100 µM | NCI-H460 > 100 µM | M14 > 100 µM | SK-OV-3 > 100 µM | SR > 100 µM | RXF 393 > 100 µM | SF-539 > 100 µM | OVCAR-8 > 100 µM | SW-620 > 100 µM

Cc1c(-c2nnc(-c3ccccc3)o2)c(=O)n(-c2ccccc2)n1C
inactive: 786-0 > 100 µM | UO-31 > 100 µM | RPMI-8226 > 100 µM | OVCAR-4 > 100 µM | HCC 2998 > 100 µM | SN12C > 100 µM | OVCAR-3 > 100 µM | NCI-H460 > 100 µM | M14 > 100 µM | SK-OV-3 > 100 µM | SR > 100 µM | RXF 393 > 100 µM | SF-539 > 100 µM | OVCAR-8 > 100 µM | SW-620 > 100 µM

CC(=O)OCC1OC(Sc2ccccn2)C=CC1OC(C)=O (stereo not given)
inactive: 786-0 > 100 µM | UO-31 > 100 µM | OVCAR-4 > 100 µM | HCC 2998 > 100 µM | SK-MEL-5 > 100 µM | SN12C > 100 µM | OVCAR-3 > 100 µM | M14 > 100 µM | SK-OV-3 > 100 µM | SR > 100 µM | RXF 393 > 100 µM | SF-539 > 100 µM | OVCAR-8 > 100 µM | SW-620 > 100 µM

COC(=O)/C(=C/c1ccc(OC)cc1)C(C(=O)O)=C1CCCCC1
inactive: 786-0 > 100 µM | UO-31 > 100 µM | RPMI-8226 > 100 µM | OVCAR-4 > 100 µM | SK-MEL-5 > 100 µM | SN12C > 100 µM | NCI-H460 > 100 µM | M14 > 100 µM | SK-OV-3 > 100 µM | SR > 100 µM | RXF 393 > 100 µM | SF-539 > 100 µM | OVCAR-8 > 100 µM | SW-620 > 100 µM

COCN1C(=O)[C@@H]2CCCN2C(=O)c2cc([N+](=O)[O-])ccc21
inactive: 786-0 > 100 µM | UO-31 35.5 µM | MDA-MB-435 66.2 µM | OVCAR-4 76.9 µM | SK-MEL-5 70.1 µM | SN12C > 100 µM | MCF7 46.3 µM | M14 > 100 µM | NCI/ADR-RES > 100 µM | SK-OV-3 44.7 µM | RXF 393 19 µM | SF-539 > 100 µM | OVCAR-8 > 100 µM | SW-620 65.8 µM

CS(=O)(=O)c1ccc(-c2cc(-c3ccc(S(C)(=O)=O)cc3)[n+](-c3cc(-c4ccccc4)c([O-])c(-c4ccccc4)c3)c(-c3ccc(S(C)(=O)=O)cc3)c2)cc1
inactive: 786-0 > 100 µM | UO-31 > 100 µM | RPMI-8226 > 100 µM | OVCAR-4 > 100 µM | HCC 2998 > 100 µM | SN12C > 100 µM | OVCAR-3 > 100 µM | NCI-H460 > 100 µM | M14 > 100 µM | SR > 100 µM | RXF 393 > 100 µM | SF-539 > 100 µM | OVCAR-8 > 100 µM | SW-620 > 100 µM

Cc1ccccc1-n1c(=S)[nH]c2c(sc(=O)n2-c2ccccc2C)c1=O
inactive: 786-0 > 100 µM | UO-31 > 100 µM | RPMI-8226 > 100 µM | OVCAR-4 > 100 µM | HCC 2998 > 100 µM | SK-MEL-5 > 100 µM | SN12C > 100 µM | OVCAR-3 > 100 µM | NCI-H460 > 100 µM | M14 > 100 µM | SK-OV-3 > 100 µM | SR > 100 µM | RXF 393 > 100 µM | SF-539 > 100 µM | OVCAR-8 > 100 µM | SW-620 > 100 µM
